# Tests used:
# [1] = Diffusivity of example drug molecules in water and in broad membrane pores; assay type: physicochemical; settings: diffusivity within broad-pore membrane (HFHHP); unit not printed in this column, D is in cm^2/s
# Source text: Assuming that the pore diameter essentially exceeds the molecule dimension, which is necessary for drug release to occur in any of the modes of drug release, Dm can be presented as product of three multipliers: diffusivity in water D, membrane porosity ε and tortuosity t0; Dm=Dεt0^−1. The maximal porosity is about 0.5. Taking into account the tortuosity t0=2, Dm˜0.25D. Vl has to be replaced by local interstitial velocity Vint. In turn, Vint can be specified as Vn(LB), when the condition 2Rlb>>Rf is valid and the fabric is placed at a small distance from LB. […] As to lm, having its value be small is desirable for the diffusion-dominated case.
# [formula] This yields, E=Pe^0.5. This equation estimate E from below, i.e., the real E is essentially larger. A larger Pe means a larger role of convection in comparison with diffusion. […] But the derived equation quantifies this observation. The diffusivity D depends on the water viscosity η and on the macromolecule radius r. This dependence is described by the Stokes-Einstein equation:
# [formula] where k is the Boltzman constant, T is absolute temperature. r increases with molecular weight (MW) and 100<MW<500 g/mole. This is not true for proteins and larger molecules.
# With respect to broad pores of membrane in case of HFHHP, Dm≅εt0^−1D˜0.25D.
# [2] = diffusivity in water; cited from earlier work
# [3] = system: Pseudomonas aeruginosa PAO1 Xen41; experiment: Zone of inhibition (modified Kirby-Bauer) of drug-loaded hollow fibers; assay type: cell-based; settings: drug-loaded polypropylene hollow fibers (saturated solution)
# Method: (§1) To assess the antimicrobial efficacy of drug loaded hollow fibers, we used a modified Kirby-Bauer assay where a zone of inhibition of bacterial growth was measured on a solid agar plate as is normally done in the field of microbiology. This model was used since it allowed us to capture the real time drug release from the hollow fibers and at the same time to represent a model of drug release into a soft tissue. […] Vancomycin was chosen for proof of principle with the hollow fibers devices because this antibiotic has precedent in being commonly used to combat S. aureus infection in orthopedic joint arthroplasties, where locally high concentrations are delivered by elution from both non-absorbable (polymethyl methacrylate, PMMA) and absorbable mineral cements. Ciprofloxacin was used since it is a broad spectrum antibiotic used to target Gram negative pathogens such as P. aeruginosa. In addition, water soluble fluorescein sodium was used as a model drug to assess the release of a hydrophilic water-soluble agent from the hollow fiber drug delivery system. All reagents were purchased from Sigma-Aldrich. P. aeruginosa and S. aureus are biofilm-forming pathogens commonly isolated from infected meshes and sutures, and the strains we have selected have been transformed with bioluminescent genes so that live biofilm development and activity can be tracked in real time using a photon counting camera (Xenogen IVIS imaging system, Alameda, Calif.).
# (§2) A lawn of bacteria was spread out onto an LB (Luria broth) agar plate. The plate was incubated at 5% CO2 at 37° C. for 18 hours for the first challenge. The fibers were then aseptically removed from the original plate and placed on a fresh lawn of bacteria on a new plate for the second challenge and incubated as before. Drug-free hollow fibers rinsed with isopropanol alone were used as controls. Experiments were repeated in triplicate. […] The fibers were then placed on a fresh plate and re-challenged. […]
# [4] = room temperature; cited from earlier work
# [5] = system: Staphylococcus aureus 16MRSA Xen30; experiment: Zone of inhibition (modified Kirby-Bauer) of drug-loaded hollow fibers; assay type: cell-based
# Method: as §1, §2
# [6] = Saturated drug solutions in normal saline used to fill hollow fibers; assay type: physicochemical
# Source text: Pressure was applied on the syringe plunger until liquid drops were visibly seen to form at the open end of each of the hollow fibers.
molecule,measurement,setting,value
Cn1c(=O)c2c(ncn2C)n(C)c1=O [Caffeine],Dm = 0.25 D,[1],1.5 × 10^−6
same,D (cm^2/s) Aqueous,[2],4.9 × 10^−6 cm^2/s
O=C(O)c1cn(C2CC2)c2cc(N3CCNCC3)c(F)cc2c1=O [ciprofloxacin],challenges over which a zone of inhibition was achieved,[3],one challenge
CO[C@H]1/C=C/O[C@@]2(C)Oc3c(C)c(O)c4c(O)c(c(/C=N/N5CCN(C)CC5)c(O)c4c3C2=O)NC(=O)/C(C)=C\C=C\[C@H](C)[C@H](O)[C@@H](C)[C@@H](O)[C@@H](C)[C@H](OC(C)=O)[C@@H]1C [rifampicin],solubility in methanol,[4],at least 50 milligrams/milliliter
CN[C@H](CC(C)C)C(=O)N[C@H]1C(=O)N[C@@H](CC(N)=O)C(=O)N[C@H]2C(=O)N[C@H]3C(=O)N[C@H](C(=O)N[C@H](C(=O)O)c4cc(O)cc(O)c4-c4cc3ccc4O)[C@H](O)c3ccc(c(Cl)c3)Oc3cc2cc(c3O[C@@H]2O[C@H](CO)[C@@H](O)[C@H](O)[C@H]2O[C@H]2C[C@](C)(N)[C@H](O)[C@H](C)O2)Oc2ccc(cc2Cl)[C@H]1O [vancomycin],period over which a zone of inhibition was achieved,"[5]; drug-loaded polypropylene hollow fibers (saturated solution), repeated challenges on fresh lawns",2 days
same,activity on the second challenge,[5]; fiber moved to a fresh plate and re-challenged,showed activity
same,concentration of saturated solution,[6],100000 µg/mL
Insulin,Dm = 0.25 D,[1],2.5 × 10^−7
same,D (cm^2/s) Aqueous,[2],8.3 × 10^−7 cm^2/s

# From patent publication US10952961B2, “Implants and constructs including hollow fibers” (priority 2015, dated 2021)
